Data published in US11919908B2, “Substituted pyrrolo[2,3-d]pyrimidine compounds as JAK2 V617F inhibitors” (Incyte Corporation, priority 2020, dated 2024).

What was measured:
[1] = target: T1, pseudo-kinase domain (JH2) of human V617F mutant JAK2 (Homo sapiens, UniProt O60674, F794H/V617F/W659A/W777A); assay: JAK2 LanthaScreen JH2-V617F Binding Assay; conditions: 50 nM Fluorescent JAK2-JH2 Tracer, 1 hour at 25° C.
T1 construct: pseudo-kinase domain (JH2, amino-acids 536-812 with 3 surface mutations W659A, W777A, F794H); His (C); purchased BPS Bioscience 79498; host or cells: baculovirus expression system
T1 sequence (O60674 536-812 V617F/W659A/W777A/F794H): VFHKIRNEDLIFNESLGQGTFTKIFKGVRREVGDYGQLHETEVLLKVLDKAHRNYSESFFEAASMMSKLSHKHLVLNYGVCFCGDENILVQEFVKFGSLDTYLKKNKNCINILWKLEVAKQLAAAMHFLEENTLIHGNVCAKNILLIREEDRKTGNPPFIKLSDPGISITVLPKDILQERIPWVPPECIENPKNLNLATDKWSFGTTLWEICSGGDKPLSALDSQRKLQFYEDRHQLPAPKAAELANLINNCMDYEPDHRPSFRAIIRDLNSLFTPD
Procedure: (§1) Example C. JAK2 LanthaScreen JH2-V617F Binding Assay JAK2 JH2-V617F binding assay utilizes pseudo-kinase domain (JH2, amino-acids 536-812 with 3 surface mutations […]) of human V617F mutant JAK2 expressed as C-terminal His-Avi-tagged, biotinylated protein in a baculovirus expression system (BPS Bioscience, Catalog #79498). The assay was conducted in black 384-well polystyrene plates in a final reaction volume of 20 μL. JAK2 JH2-V617F (0.26 nM) was incubated with compounds (100 nL serially diluted in DMSO) in the presence of 50 nM Fluorescent JAK2-JH2 Tracer (MedChem Express Catalog #HY-102055) and 0.25 nM Streptavidin-Tb cryptate (Cisbio Part #610SATLB) in assay buffer (50 mM Tris, pH=7.5, 10 mM MgCl2, 0.01% Brij-35, 0.1% BSA, 1 mM EGTA, 5% Glycerol and 5 mM DTT). Non-specific binding was accessed in the presence of 2 mM ATP. After incubation for 1 hour at 25° C., LanthaScreen signals were read on a PHERAstar FS plate reader (BMG LABTECH). Data was analyzed with IDBS XLfit and GraphPad Prism 5.0 software using a four parameter dose response curve to determine IC50 for each compound.

[2] = target: T2, pseudo-kinase domain (JH2) of human Wild Type JAK2 (Homo sapiens, UniProt O60674, F794H/W659A/W777A); assay: JAK2 LanthaScreen JH2-WT Binding Assay; conditions: 50 nM Fluorescent JAK2-JH2 Tracer, 1 hour at 25° C.
T2 construct: pseudo-kinase domain (JH2, amino-acids 536-812 with 3 surface mutations W659A, W777A, F794H); His (C); purchased BPS Bioscience 79463; host or cells: baculovirus expression system
T2 sequence (O60674 536-812 W659A/W777A/F794H): as the sequence (O60674 536-812 V617F/W659A/W777A/F794H) above, with F82V counted along it
Procedure: as §1, with “Example B.” for “Example C.”, “LanthaScreen JH2-WT” for “LanthaScreen JH2-V617F”, “JAK2 JH2-WT” for “JAK2 JH2-V617F”, “human Wild Type” for “human V617F mutant”, “Catalog #79463).” for “Catalog #79498).”, “JAK2 JH2-WT (0.145” for “JAK2 JH2-V617F (0.26”

[3] = target: T3, catalytic domain (JH1) of human JAK2 (Homo sapiens, UniProt O60674); assay: JAK2 LanthaScreen JH1 Binding Assay; conditions: 50 nM Fluorescent JAK2-JH1 Tracer, 2 hours at 25° C.
T3 construct: catalytic domain (JH1, amino acids 826-1132) of human JAK2; FLAG (N); purchased Carna Biosciences 08-445-20N; host or cells: baculovirus expression system
T3 sequence (O60674 826-1132): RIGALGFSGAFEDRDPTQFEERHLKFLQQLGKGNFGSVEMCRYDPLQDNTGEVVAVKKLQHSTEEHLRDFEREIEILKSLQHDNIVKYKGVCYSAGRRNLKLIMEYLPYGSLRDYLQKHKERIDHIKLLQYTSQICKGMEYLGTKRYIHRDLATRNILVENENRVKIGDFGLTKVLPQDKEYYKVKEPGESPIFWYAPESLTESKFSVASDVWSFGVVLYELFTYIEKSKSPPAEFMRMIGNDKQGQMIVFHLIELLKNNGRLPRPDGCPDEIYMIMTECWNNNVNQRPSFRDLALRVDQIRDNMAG
Procedure: Example A. JAK2 LanthaScreen […] Binding Assay JAK2 JH1 binding assay utilizes catalytic domain (JH1, amino acids 826-1132) of human JAK2 expressed as N-terminal FLAG-tagged, biotinylated protein in a baculovirus expression system (Carna Biosciences, Product #08-445-20N). The assay was conducted in black 384-well polystyrene plates in a final reaction volume of 20 μL. JAK2 JH1 (1.5 nM) was incubated with compounds (100 nL serially diluted in DMSO) in the presence of 50 nM Fluorescent JAK2-JH1 Tracer and 0.5 nM Streptavidin-Tb cryptate (Cisbio Part #610SATLB) in assay buffer (50 mM Tris, pH=7.5, 10 mM MgCl2, 0.01% Brij-35, 0.1% BSA, 1 mM EGTA, 5% Glycerol and 5 mM DTT). Non-specific binding was accessed in the presence of 2 mM ATP. After incubation for 2 hours at 25° C., LanthaScreen signals were read on a PHERAstar FS plate reader (BMG LABTECH). Data was analyzed with IDBS XLfit and GraphPad Prism 5.0 software using a four parameter dose response curve to determine IC50 for each compound.

Row | Compound | IC50 [1] [nM] | IC50 [2] [nM] | IC50 [3] [nM]
1 | 4-(2-Amino-5- (2,3-difluorobenzofuran-6- yl)-4-oxo-4,7-dihydro-3H- pyrrolo[2,3-d]pyrimidin-6- yl)-N,N-dimethylbenzene sulfonamide [Example 26] | 500 to 1000 | 500 to 1000 | 1000 to 2500
2 | Nc1nc2[nH]c(-c3ccccc3)c(-c3ccccc3OC(F)F)c2c(=O)[nH]1 [Example 1, 2-Amino-5-(2-(difluoromethoxy)phenyl)-6-phenyl-3,7-dihydro-4H-pyrrolo[2,3-d]pyrimidin-4-one] | > 2500 | > 2500 | > 2500
3 | CN(C)S(=O)(=O)c1ccc(-c2[nH]c3nc(N)[nH]c(=O)c3c2-c2ccccc2Cl)cc1 [Example 5, 4-(2-Amino-5-(2-chlorophenyl)-4-oxo-4,7-dihydro-3H-pyrrolo[2,3-d]pyrimidin-6-yl)-N,N-dimethylbenzene sulfonamide] | 1000 to 2500 | 1000 to 2500 | > 2500
4 | CC(C)c1cccc(-c2c(-c3ccc(S(=O)(=O)N(C)C)cc3)[nH]c3nc(N)[nH]c(=O)c23)c1 [Example 6, 4-(2-Amino-5-(3-isopropylphenyl)-4-oxo-4,7-dihydro-3H-pyrrolo [2,3-d]pyrimidin-6-yl)-N,N-dimethylbenzene sulfonamide] | > 2500 | > 2500 | > 2500
5 | CN1CCC(c2ccc(-c3c(-c4ccc(S(=O)(=O)N(C)C)cc4)[nH]c4nc(N)[nH]c(=O)c34)cc2)CC1 [Example 8, 4-(2-Amino-5-(4-(1-methylpiperidin-4-yl)phenyl)-4-oxo-4,7-dihydro-3H-pyrrolo[2,3-d]pyrimidin-6-yl)-N,N-dimethylbenzene sulfonamide] | 1000 to 2500 | 1000 to 2500 | > 2500
6 | CN(C)S(=O)(=O)c1ccc(-c2[nH]c3nc(N)[nH]c(=O)c3c2-c2ccc(C(F)F)cc2)cc1 [Example 9, 4-(2-Amino-5-(4-(difluoromethyl)phenyl)-4-oxo-4,7-dihydro-3H-pyrrolo [2,3-d]pyrimidin-6-yl)-N,N-dimethylbenzene sulfonamide] | 500 to 1000 | 500 to 1000 | 1000 to 2500
7 | CN(C)S(=O)(=O)c1ccc(-c2[nH]c3nc(N)[nH]c(=O)c3c2-c2cccc3c2OCCC3)cc1 [Example 10, 4-(2-Amino-5-(chroman-8-yl)-4-oxo-4,7-dihydro-3H-pyrrolo[2,3-d]pyrimidin-6-yl)-N,N-dimethylbenzene sulfonamide] | 500 to 1000 | 500 to 1000 | > 2500
8 | CN(C)S(=O)(=O)c1ccc(-c2[nH]c3nc(N)[nH]c(=O)c3c2-c2cccc3c2OC(F)(F)O3)cc1 [Example 12, 4-(2-Amino-5-(2,2-difluorobenzo[d] [1,3]dioxol-4-yl)-4-oxo-4,7-dihydro-3H-pyrrolo[2,3-d]pyrimidin-6-yl)-N,N-dimethylbenzene sulfonamide] | > 2500 | > 2500 | 1000 to 2500
9 | CN(C)S(=O)(=O)c1ccc(-c2[nH]c3nc(N)[nH]c(=O)c3c2-c2cccc(C(N)=O)c2)cc1 [Example 14, 3-(2-Amino-6-(4-(N,N-dimethylsulfamoyl)phenyl)-4-oxo-4,7-dihydro-3H-pyrrolo [2,3-d]pyrimidin-5-yl)benzamide] | 1000 to 2500 | 1000 to 2500 | 1000 to 2500
10 | CN(C)S(=O)(=O)c1ccc(-c2[nH]c3nc(N)[nH]c(=O)c3c2-c2ccccc2CC#N)cc1 [Example 15, 4-(2-Amino-5-(2-(cyanomethyl)phenyl)-4-oxo-4,7-dihydro-3H-pyrrolo[2,3-d]pyrimidin-6-yl)-N,N-dimethylbenzene sulfonamide] | > 2500 | > 2500 | > 2500
11 | CN(C)S(=O)(=O)c1ccc(-c2[nH]c3nc(N)[nH]c(=O)c3c2-c2cccc3c2cnn3C)cc1 [Example 16, 4-(2-Amino-5-(1-methyl-1H-indazol-4-yl)-4-oxo-4,7-dihydro-3H-pyrrolo[2,3-d]pyrimidin-6-yl)-N,N-dimethylbenzene sulfonamide] | > 2500 | > 2500 | > 2500
12 | CN(C)S(=O)(=O)c1ccc(-c2[nH]c3nc(N)[nH]c(=O)c3c2-c2cccc(C#N)c2)cc1 [Example 17, 4-(2-Amino-5-(3-cyanophenyl)-4-oxo-4,7-dihydro-3H-pyrrolo [2,3-d]pyrimidin-6-yl)-N,N-dimethyl-benzene sulfonamide] | 500 to 1000 | 500 to 1000 | 100 to 500
13 | CN(C)S(=O)(=O)c1ccc(-c2[nH]c3nc(N)[nH]c(=O)c3c2-c2ccccc2C#N)cc1 [Example 18, 4-(2-Amino-5-(2-cyano-phenyl)-4-oxo-4,7-dihydro-3H-pyrrolo[2,3-d]pyrimidin-6-yl)-N,N-dimethylbenzene sulfonamide] | > 2500 | > 2500 | > 2500

The next lines start with the values.

Row | IC50 [1] [nM] | IC50 [2] [nM] | IC50 [3] [nM] | Compound
14 | 500 to 1000 | 500 to 1000 | 1000 to 2500 | Cc1cccc(-c2c(-c3ccc(S(=O)(=O)N(C)C)cc3)[nH]c3nc(N)[nH]c(=O)c23)c1 [Example 2, 4-(2-Amino-4-oxo-5-(3-tolyl)-4,7-dihydro-3H-pyrrolo[2,3-d]pyrimidin-6-yl)-N,N-dimethylbenzenesulfonamide]
15 | 100 to 500 | 100 to 500 | > 2500 | CN(C)S(=O)(=O)c1ccc(-c2[nH]c3nc(N)[nH]c(=O)c3c2-c2cccc3ccoc23)cc1 [Example 3, 4-(2-Amino-5-(benzofuran-7-yl)-4-oxo-4,7-dihydro-3H-pyrrolo[2,3-d]pyrimidin-6-yl)-N,N-dimethylbenzenesulfonamide]
16 | 500 to 1000 | 500 to 1000 | 1000 to 2500 | CN(C)S(=O)(=O)c1ccc(-c2[nH]c3nc(N)[nH]c(=O)c3c2-c2cccc(CO)c2)cc1 [Example 4, 4-(2-Amino-5-(3-(hydroxymethyl)phenyl)-4-oxo-4,7-dihydro-3H-pyrrolo [2,3-d]pyrimidin-6-yl)-N,N-dimethyl-benzene sulfonamide]
17 | 500 to 1000 | 500 to 1000 | > 2500 | CN(C)S(=O)(=O)c1ccc(-c2[nH]c3nc(N)[nH]c(=O)c3c2-c2cccc3c2OCCO3)cc1 [Example 7, 4-(2-Amino-5-(2,3-dihydrobenzo[b][1,4]dioxin-5-yl)-4-oxo-4,7-dihydro-3H-pyrrolo [2,3-d]pyrimidin-6-yl)-N,N-dimethylbenzene sulfonamide]
18 | 100 to 500 | 100 to 500 | 1000 to 2500 | CNC(=O)c1ccc(-c2c(-c3ccc(S(=O)(=O)N(C)C)cc3)[nH]c3nc(N)[nH]c(=O)c23)cc1 [Example 11, 4-(2-Amino-6-(4-(N,N-dimethyl-sulfamoyl)phenyl)-4-oxo-4,7-dihydro-3H-pyrrolo[2,3-d]pyrimidin-5-yl)-N-methylbenzamide]
19 | 100 to 500 | 100 to 500 | 1000 to 2500 | CN(C)S(=O)(=O)c1ccc(-c2[nH]c3nc(N)[nH]c(=O)c3c2-c2ccc(S(C)(=O)=O)cc2)cc1 [Example 13, 4-(2-Amino-5-(4-(methylsulfonyl)phenyl)-4-oxo-4,7-dihydro-3H-pyrrolo[2,3-d]pyrimidin-6-yl)-N,N-dimethylbenzene sulfonamide]
